# Values quoted from earlier work as cited in patent US20220142214A1, “SYNERGISTIC COMPOSITION OF FOOD-BASED AND ORGANIC NUTRIENTS AND METHODS FOR USE AND MANUFACTURE” (priority 2020, published 2022).
# Where two headings read alike, the source gives them in different places.
# How the values were obtained:
# [1] = test system: B16-BL6 cells; conditions: for tumor growth: intraperitoneal administration at time of i.m. injection of B16-BL6 cells
# [2] = test system: B16-BL6 cells; conditions: dose-dependent
# [3] = intraperitoneal administration, syngeneic mice
Structure (SMILES),tumor growth [1],"toxicity ([1]; mouse, in vivo, ip)",number of B16-BL6 colonies in the lungs [2],"toxicity [1, 3]"
Oc1ccc(C=Cc2cc(O)cc(O)c2)cc1 [resveratrol],"significant, dose-dependent delay of tumor growth",without toxicity,,
O=c1c(O)c(-c2ccc(O)c(O)c2)oc2cc(O)cc(O)c12 [quercetin],"significant, dose-dependent delay of tumor growth",without toxicity,significantly decreased,
"O=C(O[C@@H]1Cc2c(O)cc(O)cc2O[C@@H]1c1cc(O)c(O)c(O)c1)c1cc(O)c(O)c(O)c1 [EGCG, Epigallocathechin-3-gallate]","significant, dose-dependent delay of tumor growth",,,without toxicity
CC/C(=C(\c1ccccc1)c1ccc(OCCN(C)C)cc1)c1ccccc1 [tamoxifen],"significant, dose-dependent delay of tumor growth",without toxicity,significantly decreased,
O=c1cc(-c2ccc(O)cc2)oc2cc(O)cc(O)c12 [apigenin],"significant, dose-dependent delay of tumor growth",,significantly decreased,without toxicity
